Measurements published in patent US9115122B2, “Non-ATP dependent inhibitors of extracellular signal-regulated kinase (ERK)” (UNIVERSITY OF MARYLAND, BALTIMORE, priority 2012, dated 2015).

What was measured:
[1] = test system: c-Fos, Fra1, and FosB expression; experiment: Immunoblot of EGF-induced c-Fos, Fra1 and FosB expression in HeLa cells; format: cell-based; settings: EGF 25 ng/mL
Procedure: FIG. 3. EGF-mediated induction of AP-1 proteins is inhibited by SF-3-026 and SF-3-030. (a) HeLa cells were treated for 10, 30, or 60 min. with EGF (25 ng/mL) in the presence of 50 μM SF-3-026 or 10 μM U0126. Protein lysates were immunoblotted for c-Fos, Fra1, FosB and FosB2. Phosphorylated ERK1/2 is not affected by SF-3-026 and α-tubulin expression is shown for a protein loading control. (b) Protein lysates from HeLa cells treated for 30 min. with EGF in the absence or presence of 10, 25, 50, or 100 μM of SF-3-026 or SF-3-030 were immunoblotted for c-Fos, Fra1, FosB, FosB2, as well as phosphorylated ERK1/2 and MEK1/2. Total ERK2 and α-tubulin expression are shown for protein loading controls. Data are representative of three independent experiments.
Analysis of protein expression levels, activity, and cell proliferation were done as previously described. […] Proteins were separated by SDS-PAGE, analyzed by immunoblotting, and detected using enhanced chemiluminescence (ECL, GE Healthcare, United Kingdom).
The reported half-life for c-Fos is ˜10 minutes and growth factor-mediated stabilization of c-Fos protein expression can be observed within 30-60 minutes, whereas stabilization of Fra1 protein is delayed due to AP-1 regulation of the Fra1 promoter. Thus, growth factor-mediated induction of c-Fos, Fra1, and FosB expression was evaluated following treatment with SF-3-026. […]

ERK2 L198A/L235A = ERK2 L198A/L235A (Rattus norvegicus (Rat), UniProt P63086, L198A/L235A); experiment: Fluorescence quenching (FQ) binding affinity; settings: read-out: KD L198A/L235A (Site 5)
ERK2 L198A/L235A, sequence (P63086 whole entry L198A/L235A): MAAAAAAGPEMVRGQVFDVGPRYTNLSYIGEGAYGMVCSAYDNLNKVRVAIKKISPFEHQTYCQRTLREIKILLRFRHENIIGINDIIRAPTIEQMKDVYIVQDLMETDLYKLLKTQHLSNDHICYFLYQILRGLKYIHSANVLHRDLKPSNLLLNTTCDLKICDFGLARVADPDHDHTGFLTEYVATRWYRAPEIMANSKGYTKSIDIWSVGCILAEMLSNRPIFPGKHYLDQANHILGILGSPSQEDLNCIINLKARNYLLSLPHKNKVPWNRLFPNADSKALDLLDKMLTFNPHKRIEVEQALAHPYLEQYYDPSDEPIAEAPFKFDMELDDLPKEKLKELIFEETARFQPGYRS

ERK2 R275A = ERK2 R275A (Rattus norvegicus (Rat), UniProt P63086, R275A); experiment: Fluorescence quenching (FQ) binding affinity; settings: read-out: KD R275A (Site 3)
ERK2 R275A, sequence (P63086 whole entry R275A): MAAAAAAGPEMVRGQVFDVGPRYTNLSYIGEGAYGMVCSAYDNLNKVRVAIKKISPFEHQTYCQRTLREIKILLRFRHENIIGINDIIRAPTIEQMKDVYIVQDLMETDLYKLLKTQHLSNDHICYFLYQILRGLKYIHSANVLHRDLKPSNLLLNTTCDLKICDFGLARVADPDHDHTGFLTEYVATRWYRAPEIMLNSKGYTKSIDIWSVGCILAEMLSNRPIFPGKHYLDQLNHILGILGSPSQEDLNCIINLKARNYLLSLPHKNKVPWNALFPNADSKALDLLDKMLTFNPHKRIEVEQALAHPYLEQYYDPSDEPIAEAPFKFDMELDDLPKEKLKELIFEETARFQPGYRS

ERK2 L232A = ERK2 L232A (Rattus norvegicus (Rat), UniProt P63086, L232A); experiment: Fluorescence quenching (FQ) binding affinity; settings: read-out: KD L232A (Site 5)
ERK2 L232A, sequence (P63086 whole entry L232A): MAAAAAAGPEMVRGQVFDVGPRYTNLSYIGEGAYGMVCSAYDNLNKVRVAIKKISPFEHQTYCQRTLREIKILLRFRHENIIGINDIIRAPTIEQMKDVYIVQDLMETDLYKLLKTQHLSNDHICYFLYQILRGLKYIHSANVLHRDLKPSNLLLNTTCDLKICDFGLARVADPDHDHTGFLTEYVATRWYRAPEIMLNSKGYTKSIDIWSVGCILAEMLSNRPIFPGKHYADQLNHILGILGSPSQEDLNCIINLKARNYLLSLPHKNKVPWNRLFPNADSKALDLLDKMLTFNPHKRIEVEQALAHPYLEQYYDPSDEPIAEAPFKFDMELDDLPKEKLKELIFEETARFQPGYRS

ERK2 wild type (WT) = ERK2 wild type (WT) (Rattus norvegicus (Rat), UniProt P63086); experiment: Fluorescence quenching (FQ) binding affinity; settings: 1 nM to 20 μM test compound
ERK2 wild type (WT), sequence (P63086 whole entry): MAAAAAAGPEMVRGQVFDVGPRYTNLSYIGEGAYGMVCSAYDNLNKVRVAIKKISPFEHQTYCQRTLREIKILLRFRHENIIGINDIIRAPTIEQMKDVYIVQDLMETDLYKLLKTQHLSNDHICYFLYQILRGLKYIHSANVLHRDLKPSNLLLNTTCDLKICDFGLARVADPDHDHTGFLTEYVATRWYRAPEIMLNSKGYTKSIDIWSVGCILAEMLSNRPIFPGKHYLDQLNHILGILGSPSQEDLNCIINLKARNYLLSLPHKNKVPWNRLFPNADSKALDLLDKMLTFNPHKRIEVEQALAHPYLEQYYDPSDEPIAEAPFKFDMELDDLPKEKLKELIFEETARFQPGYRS

ERK2 Y191A = ERK2 Y191A (Rattus norvegicus (Rat), UniProt P63086, Y191A); experiment: Fluorescence quenching (FQ) binding affinity; settings: read-out: KD Y191A (Site 2)
ERK2 Y191A, sequence (P63086 whole entry Y191A): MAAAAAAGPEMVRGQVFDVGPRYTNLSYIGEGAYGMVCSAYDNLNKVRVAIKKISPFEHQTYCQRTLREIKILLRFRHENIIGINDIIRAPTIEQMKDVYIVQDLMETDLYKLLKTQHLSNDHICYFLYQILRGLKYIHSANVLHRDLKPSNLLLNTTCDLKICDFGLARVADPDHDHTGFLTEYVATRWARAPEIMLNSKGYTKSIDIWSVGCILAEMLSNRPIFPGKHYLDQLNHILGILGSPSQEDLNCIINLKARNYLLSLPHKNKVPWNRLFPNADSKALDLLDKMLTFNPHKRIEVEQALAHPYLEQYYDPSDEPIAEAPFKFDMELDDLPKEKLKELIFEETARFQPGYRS

- Kd (ERK2 L198A/L235A): > 20000 nM
- Kd (ERK2 R275A): 240 nM
- Kd (ERK2 L232A): 130 nM
- Kd (ERK2 wild type (WT)): 130 ± 20 nM
- Kd (ERK2 Y191A): 130 nM
Structure (SMILES): O=S1(=O)C=CC(OS(=O)(=O)c2ccccc2)C1 (stereo not drawn) [SF-3-026]
- inhibition of EGF-induced c-Fos, Fra1, and FosB expression [1]: dramatic inhibition
